The results in this text go back to patent US9315503B2, “Kinase inhibitors” (CHIESI FARMACEUTICI S.p.A., priority 2011, dated 2016).

The assay deals with T1, p38alpha (Homo sapiens, UniProt Q16539).
T1 construct: purchased Invitrogen PV3304
Briefly: P38Alpha enzyme inhibition assay (Alphascreen kinase activity assay). The assay is classed as biochemical. The following applies: 100 pM p38alpha, 250 μM ATP, 2 hours pre-incubation at 25° C., read-out: p38α inhibition (IC50 values). The method, then:
P38Alpha Enzyme Inhibition Assay.
The inhibitory activity of compounds was determined using an Alphascreen® (Perkin Elmer) based kinase activity assay. Kinase reactions consisted of 25 mM HEPES pH 7.5, 10 mM MgCl2, 100 μM Na3VO4, 2 mM DTT, 0.05 mg/ml Tween 20, 100 pM p38alpha (Invitrogen, PV3304), 1% DMSO and 0.3 μg/ml ATF-2 fusion protein (New England Biolabs, 9224). Compounds were incubated under these conditions for 2 hours, at 25° C., prior to the initiation of the kinase activity by the addition of the 250 μM ATP. Reaction volumes were 20 uL. After 1 hr at 25° C. reactions were stopped by the adding 10 uL of 25 mM HEPES pH 7.5 containing 62.5 mM EDTA, 0.05% Triton X-100, 10% BSA and 0.83 ng/uL anti-phospho-ATF2 antibody (Abeam, ab28812). Detection was performed by measuring luminescence following the addition of Alphascreen Donor beads (Perkin Elmer 6765300) and Protein A Alphascreen Acceptor beads (Perkin Elmer 6760137), both at a final concentration of 20 ug/ml. IC50 values were determined from concentration-response curves.

Where a name gives a salt, the structure may show the parent alone. Where only a bound is given, the exact number is not on record here.

T1 sequence (Q16539 whole entry): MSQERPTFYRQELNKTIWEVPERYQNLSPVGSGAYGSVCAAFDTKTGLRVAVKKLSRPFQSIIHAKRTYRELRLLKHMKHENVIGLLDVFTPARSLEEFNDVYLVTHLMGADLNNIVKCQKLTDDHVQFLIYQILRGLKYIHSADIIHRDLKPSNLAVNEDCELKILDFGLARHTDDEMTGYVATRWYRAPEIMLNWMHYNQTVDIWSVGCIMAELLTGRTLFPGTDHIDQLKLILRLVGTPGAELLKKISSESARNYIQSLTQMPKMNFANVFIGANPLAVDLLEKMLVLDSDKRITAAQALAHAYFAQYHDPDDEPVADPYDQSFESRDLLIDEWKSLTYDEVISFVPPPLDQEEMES

As a reminder, the IC50 is the midpoint of a concentration-inhibition curve. With `Cc1ccc(-n2nc(C(C)(C)C)cc2NC(=O)N[C@H]2CC[C@@H](Oc3ccc4nnc([C@@H]5CCCN5)n4c3)c3ccccc32)cc1` [Example 6, 1-(5-tert-Butyl-2-p-tolyl-2H-pyrazol-3-yl)-3-[(1S,4R)-4-((S)-3-pyrrolidin-2-yl-[1,2,4]triazolo[4,3-a]pyridin-6-yloxy)-1,2,3,4-tetrahydro-naphthalen-1-yl]-urea], the IC50 was < 10 nM.

On to `Cc1ccc(-n2nc(C(C)(C)C)cc2NC(=O)N[C@H]2CC[C@@H](OCCN3CCOCC3)c3ccccc32)cc1` [Example 32, 1-(5-tert-Butyl-2-p-tolyl-2H-pyrazol-3-yl)-3-[(1S,4R)-4-(2-morpholin-4-yl-ethoxy)-1,2,3,4-tetrahydro-naphthalen-1-yl]-urea], for which the IC50 was in the range of 100 to 500 nM. Then `Cc1ccc(-n2nc(C(C)(C)C)cc2NC(=O)N[C@H]2CC[C@@H](Oc3ccc4nnc(N(C)CCN5CCOCC5)n4c3)c3ccccc32)cc1` [Example 45, 1-(5-tert-Butyl-2-p-tolyl-2H-pyrazol-3-yl)-3-((1S,4R)-4-{3-[methyl-(2-morpholin-4-yl-ethyl)-amino]-[1,2,4]triazolo[4,3-a]pyridin-6-yloxy}-1,2,3,4-tetrahydro-naphthalen-1-yl)-urea], with < 10 nM; and `Cc1ccc(-c2nc(C(C)(C)C)[nH]c2NC(=O)N[C@H]2CC[C@@H](Oc3ccc4nnc(N5CCCCC5)n4c3)c3ccccc32)cc1` [Example 51, 1-(2-tert-Butyl-5-p-tolyl-3H-imidazol-4-yl)-3-[(1S,4R)-4-(3-piperidin-1-yl-[1,2,4]triazolo[4,3-a]pyridin-6-yloxy)-1,2,3,4-tetrahydro-naphthalen-1-yl]-urea], with < 10 nM.

For the compound `Cc1ccc(-n2nc(C(C)(C)C)cc2NC(=O)N[C@H]2CC[C@@H](Oc3ccc4nnc(CN5CCN(C)C(CO)C5)n4c3)c3ccccc32)cc1` (stereo partly drawn) [Example 56, 1-(5-tert-Butyl-2-p-tolyl-2H-pyrazol-3-yl)-3-{(1S,4R)-4-[3-(3-hydroxymethyl-4-methyl-piperazin-1-ylmethyl)-[1,2,4]triazolo[4,3-a]pyridin-6-yloxy]-1,2,3,4-tetrahydro-naphthalen-1-yl}-urea], the IC50 is < 10 nM. On to `Cc1ccc(-n2nc(C(C)(C)C)cc2NC(=O)N[C@H]2CC[C@@H](Oc3ccc4nnc([C@@H]5C[C@@H](F)CN5C)n4c3)c3ccccc32)cc1` [Example 91, 1-(5-tert-Butyl-2-p-tolyl-2H-pyrazol-3-yl)-3-{(1S,4R)-4-[3-((2S,4R)-4-fluoro-1-methyl-pyrrolidin-2-yl)-[1,2,4]triazolo[4,3-a]pyridin-6-yloxy]-1,2,3,4-tetrahydro-naphthalen-1-yl}-urea], for which the IC50 is < 10 nM. The value for `C[C@H]1CCCCN1c1nnc2ccc(O[C@@H]3CC[C@H](NC(=O)Nc4cc(C(C)(C)C)nn4-c4cccc(CCN5CCOCC5)c4)c4ccccc43)cn12` [Example 131, 1-{5-tert-Butyl-2-[3-(2-morpholin-4-yl-ethyl)-phenyl]-2H-pyrazol-3-yl}-3-{(1S,4R)-4-[3-((S)-2-methyl-piperidin-1-yl)-[1,2,4]triazolo[4,3-a]pyridin-6-yloxy]-1,2,3,4-tetrahydro-naphthalen-1-yl}-urea formate salt] was < 10 nM.

For `C[C@H]1CCCCN1c1nnc2ccc(O[C@@H]3CC[C@H](NC(=O)Nc4cc(C(C)(C)C)nn4-c4cccc(CCN5CCCC5)c4)c4ccccc43)cn12` [Example 132, 1-{5-tert-Butyl-2-[3-(2-pyrrolidin-1-yl-ethyl)-phenyl]-2H-pyrazol-3-yl}-3-{(1S,4R)-4-[3-((S)-2-methyl-piperidin-1-yl)-[1,2,4]triazolo[4,3-a]pyridin-6-yloxy]-1,2,3,4-tetrahydro-naphthalen-1-yl}-urea formate salt], the IC50 is < 10 nM. As for `CCN(C)CCc1cccc(-n2nc(C(C)(C)C)cc2NC(=O)N[C@H]2CC[C@@H](Oc3ccc4nnc(N5CCCC[C@@H]5C)n4c3)c3ccccc32)c1` [Example 133, 1-(5-tert-Butyl-2-{3-[2-(ethyl-methyl-amino)-ethyl]-phenyl}-2H-pyrazol-3-yl)-3-{(1S,4R)-4-[3-((S)-2-methyl-piperidin-1-yl)-[1,2,4]triazolo[4,3-a]pyridin-6-yloxy]-1,2,3,4-tetrahydro-naphthalen-1-yl}-urea formate salt], the IC50 was < 10 nM. Regarding `C[C@H]1CCCCN1c1nnc2ccc(O[C@@H]3CC[C@H](NC(=O)Nc4cc(C(C)(C)C)nn4-c4cccc(CCN(C)C)c4)c4ccccc43)cn12` [Example 134, 1-{5-tert-Butyl-2-[3-(2-dimethylamino-ethyl)-phenyl]-2H-pyrazol-3-yl}-3-{(1S,4R)-4-[3-((S)-2-methyl-piperidin-1-yl)-[1,2,4]triazolo[4,3-a]pyridin-6-yloxy]-1,2,3,4-tetrahydro-naphthalen-1-yl}-urea formate salt], the IC50 was < 10 nM.

Regarding `C[C@H]1CCCCN1c1nnc2ccc(O[C@@H]3CC[C@H](NC(=O)Nc4cc(C(C)(C)C)nn4-c4cccc(CCN5CCCCC5)c4)c4ccccc43)cn12` [Example 135, 1-{5-tert-Butyl-2-[3-(2-piperidin-1-yl-ethyl)-phenyl]-2H-pyrazol-3-yl}-3-{(1S,4R)-4-[3-((S)-2-methyl-piperidin-1-yl)-[1,2,4]triazolo[4,3-a]pyridin-6-yloxy]-1,2,3,4-tetrahydro-naphthalen-1-yl}-urea formate salt], the IC50 is < 10 nM. Then `C[C@H]1CCCCN1c1nnc2ccc(O[C@@H]3CC[C@H](NC(=O)Nc4cc(C(C)(C)C)nn4-c4cccc(CCN5CCN(C)CC5)c4)c4ccccc43)cn12` [Example 136, 1-(5-tert-Butyl-2-{3-[2-(4-methyl-piperazin-1-yl)-ethyl]-phenyl}-2H-pyrazol-3-yl)-3-{(1S,4R)-4-[3-((S)-2-methyl-piperidin-1-yl)-[1,2,4]triazolo[4,3-a]pyridin-6-yloxy]-1,2,3,4-tetrahydro-naphthalen-1-yl}-urea formate salt], with < 10 nM; and `C[C@H]1CCCCN1c1nnc2ccc(O[C@@H]3CC[C@H](NC(=O)Nc4cc(C(C)(C)C)nn4-c4cccc(CCN5CCCOCC5)c4)c4ccccc43)cn12` [Example 137, 1-{5-tert-Butyl-2-[3-(2-[1,4]oxazepan-4-yl-ethyl)-phenyl]-2H-pyrazol-3-yl}-3-{(1S,4R)-4-[3-((S)-2-methyl-piperidin-1-yl)-[1,2,4]triazolo[4,3-a]pyridin-6-yloxy]-1,2,3,4-tetrahydro-naphthalen-1-yl}-urea formate salt], with < 10 nM; and `C[C@H]1CCCCN1c1nnc2ccc(O[C@@H]3CC[C@H](NC(=O)Nc4cc(C(C)(C)C)nn4-c4cccc(CCN5CCCN(C)CC5)c4)c4ccccc43)cn12` [Example 138, 1-(5-tert-Butyl-2-{3-[2-(4-methyl-[1,4]diazepan-1-yl)-ethyl]-phenyl}-2H-pyrazol-3-yl)-3-{(1S,4R)-4-[3-((S)-2-methyl-piperidin-1-yl)-[1,2,4]triazolo[4,3-a]pyridin-6-yloxy]-1,2,3,4-tetrahydro-naphthalen-1-yl}-urea formate salt], with < 10 nM. Turning to `C[C@H]1COCCN1c1nnc2ccc(O[C@@H]3CC[C@H](NC(=O)Nc4cc(C(C)(C)C)nn4CCO)c4ccccc43)cn12` [Example 139, 1-[5-tert-Butyl-2-(2-hydroxy-ethyl)-2H-pyrazol-3-yl]-3-{(1S,4R)-4-[3-((S)-3-methyl-morpholin-4-yl)-[1,2,4]triazolo[4,3-a]pyridin-6-yloxy]-1,2,3,4-tetrahydro-naphthalen-1-yl}-urea], the IC50 is < 10 nM. On to `C[C@H]1CCCCN1c1nnc2ccc(O[C@@H]3CC[C@H](NC(=O)Nc4cc(C(C)(C)C)nn4-c4ccnc(N(C)CCN(C)C)n4)c4ccccc43)cn12` [Example 140], for which the IC50 was < 10 nM.

Consider `C[C@H]1COCCN1c1nnc2ccc(O[C@@H]3CC[C@H](NC(=O)Nc4cc(C(C)(C)C)nn4-c4cccc(OCCN(C)C)c4)c4ccccc43)cn12` [Example 141, 1-{5-tert-Butyl-2-[3-(2-dimethylamino-ethoxy)-phenyl]-2H-pyrazol-3-yl}-3-{(1S,4R)-4-[3-((S)-3-methyl-morpholin-4-yl)-[1,2,4]triazolo[4,3-a]pyridin-6-yloxy]-1,2,3,4-tetrahydro-naphthalen-1-yl}-urea formate salt], for which the IC50 was < 10 nM. With `C[C@H]1COCCN1c1nnc2ccc(O[C@@H]3CC[C@H](NC(=O)Nc4cc(C(C)(C)C)nn4CCN4CCOCC4)c4ccccc43)cn12` [Example 142, 1-[5-tert-Butyl-2-(2-morpholin-4-yl-ethyl)-2H-pyrazol-3-yl]-3-{(1S,4R)-4-[3-((S)-3-methyl-morpholin-4-yl)-[1,2,4]triazolo[4,3-a]pyridin-6-yloxy]-1,2,3,4-tetrahydro-naphthalen-1-yl}-urea formate salt], the IC50 is < 10 nM.

As to `C[C@@H]1CCC[C@H](C)N1c1nnc2ccc(O[C@@H]3CC[C@H](NC(=O)Nc4cc(C(C)(C)C)nn4-c4cccc(CN5CCN(C)CC5)c4)c4ccccc43)cn12` [Example 143, 1-{5-tert-Butyl-2-[3-(4-methyl-piperazin-1-ylmethyl)-phenyl]-2H-pyrazol-3-yl}-3-{(1S,4R)-4-[3-((2S,6R)-2,6-dimethyl-piperidin-1-yl)-[1,2,4]triazolo[4,3-a]pyridin-6-yloxy]-1,2,3,4-tetrahydro-naphthalen-1-yl}-urea formate salt], the IC50 was < 10 nM.
